From patent US12152248B2, “Membrane-penetrating peptides to enhanced transfection and compositions and methods for using same” (LIFE TECHNOLOGIES CORPORATION, priority 2013, dated 2024)

Experiments:
Assay type in all cases: cell-based
[1] = test system: HEK293, HeLa, COS-7, LNCaP, A549 and HepG2; experiment: Comparison of transfection reagents, GFP fluorescence images (FIG. 2); conditions: panel of six cell lines; pcDNAEF1a/emGFP; 48 hrs; Peptide 1 used with LIPOFECTAMINE® 3000
Description: Transfection complexes for transfecting DNA into cells in culture were prepared according to manufacturer protocol. LIPOFECTAMINE® 2000 and LIPIFECTAMINE® LTX were purchased from Life Technologies Corp. (Carlsbad, CA), FUGENE® HD was purchased from Promega Corp. (Fitchburg, WI), and X-TREMEGENE™ HP was purchased from Roche Diagnostics (Basel, Switzerland).
To prepare transfection complexes containing the non-naturally occurring peptides described above, Peptide 1 having the following sequence […] (SEQ ID NO. 89) was synthesized and provided as a dry powder. The dry powder was reconstituted in sterile ultrapure water to a final concentration of 4.35 mg/ml and allowed to fully dissolve. This stock peptide solution was set aside for use in the next step.
To prepare the lipid aggregate-DNA-peptide complexes, LIPOFECTAMINE® 3000 reagent (Life Technologies Corp., Carlsbad, CA) was obtained. […]
Following the incubation, the lipid-peptide-DNA complexes were added to cells that were seeded the previous day with fresh growth medium; for 96-well plates, 10 μl of the lipid-peptide-DNA was added to the cells, for 24-well plates, 50 μl of the lipid-peptide-DNA mixture was added to the cells, for 6-well plates, 250 μl of the lipid-peptide-DNA was added to the cells. The cells were incubated in the presence of the lipid-peptide-DNA for approximately 24-48 hrs, and analyzed. […]

HeLa cells [2] = experiment: Effect of transfection reagent dosage on transfection efficiency and GFP expression (FIG. 3); conditions: 96-well, 0.1-0.4 μl reagent, Peptide 1 with LIPOFECTAMINE® 3000 vs LIPOFECTAMINE® 2000 and LTX
Excerpt: (§1) FIG. 3A is a graph comparing the relative transfection efficiency for an expression vector encoding GFP transfected into cultured HeLa cells using increasing dosages of three different commercially available lipid aggregate formulations, LIPOFECTAMINE® 2000 (open circles), LIPOFECTAMINE® LTX (open squares), and LIPOFECTAMINE® 3000 in combination with a peptide according to an embodiment (open triangles);
as §1, with “3B” for “3A”, “intensity of GFP expression in HeLa cells transfected with” for “relative transfection efficiency for”, “GFP” for “GFP transfected into cultured HeLa cells”, “dosage” for “dosages”
HeLa cells were plated in 96-well plates and transfected with pcDNAEF1a/emGFP using 0.1 μl, 0.2 μl, 0.3 μl or 0.4 μl of LIPOFECTAMINE® 2000, LIPOFECTAMINE® LTX, or LIPOFECTAMINE® 3000 reagent in combination with Peptide 1 as described in Example 1. Transfection efficiency and relative protein expression as measured by […] was determine for each condition. […]

HeLa cells [3] = experiment: GFP transfection with lipid alone, peptide alone or both (FIG. 8); conditions: 96-well, 48 hrs, Peptide 1 in the presence of LIPOFECTAMINE® 3000, 0.05-0.5 μl
Excerpt: FIG. 8 are bar graphs depicting relative transfection efficiency (upper graph, GFP+ as % of Single Cells Only) or relative expression level per cell (lower graph; Single cells Only Mean FL-1) of HeLa cells transfected with a GFP expression vector using the indicated doses (in μl) of LIPOFECTAMINE® 3000 alone (LF3K), LIPOFECTAMINE® 2000 (LF2K), a peptide according to an embodiment (Peptide 1) or LIPOFECTAMINE® 3000 in combination with a peptide according to an embodiment (LF3K+ Peptide 1);
HeLa cells were seeded onto 96-well plates and transfected for 48 hrs with […] of pcDNAEF1a/emGFP using either 0.05 μl, 0.1 μl, 0.2 μl, 0.3 μl, 0.4 μl, or 0.5 μl of LIPOFECTAMINE® 3000 Reagent alone (LF3K), LIPOFECTAMINE® 2000 (LF2K), Peptide 1 alone (Peptide 1), or LIPOFECTAMINE® 3000 in combination with Peptide 1 as described in Example 1 (LF3K+Peptide 1). Transfection efficiency and protein expression as measured by Fluorescence intensity (FL1-H) were determined. Results are depicted in FIG. 8.

SRRARRSPRESGKKRKRKRGGGSGGGSGGGSRRRRRRRRRRR [Peptide 1, 89; MPP DPV10/6 fused to Linker 1 and cationic CP1]
transfection efficiency (GFP expression, FIG. 2) [1]: improved transfection efficiency substantially
relative expression of GFP (FIG. 3B) (HeLa cells [2]): improves relative expression of GFP in the cells over the entire range of transfection reagent dosages tested
relative transfection efficiency (FIG. 3A) (HeLa cells [2]): improves transfection efficiency of the cells over the entire range of transfection reagent dosages tested
transfection efficiency and protein expression (FIG. 8) (HeLa cells [3]): significantly enhances transfection efficiency and protein expression
